The record followed here is patent US12492188B2, “1H-benzo[D]imidazole derivatives as TLR9 inhibitors for the treatment of fibrosis” (BRISTOL-MYERS SQUIBB COMPANY, priority 2020, dated 2025).

Format in all cases: cell-based
One experiment concerns the target T1, human TLR9 (Homo sapiens, UniProt Q9NR96).
T1 construct: host or cells: HEK-Blue cells (HEK293-derived reporter line)
T1 sequence (Q9NR96 26-1032): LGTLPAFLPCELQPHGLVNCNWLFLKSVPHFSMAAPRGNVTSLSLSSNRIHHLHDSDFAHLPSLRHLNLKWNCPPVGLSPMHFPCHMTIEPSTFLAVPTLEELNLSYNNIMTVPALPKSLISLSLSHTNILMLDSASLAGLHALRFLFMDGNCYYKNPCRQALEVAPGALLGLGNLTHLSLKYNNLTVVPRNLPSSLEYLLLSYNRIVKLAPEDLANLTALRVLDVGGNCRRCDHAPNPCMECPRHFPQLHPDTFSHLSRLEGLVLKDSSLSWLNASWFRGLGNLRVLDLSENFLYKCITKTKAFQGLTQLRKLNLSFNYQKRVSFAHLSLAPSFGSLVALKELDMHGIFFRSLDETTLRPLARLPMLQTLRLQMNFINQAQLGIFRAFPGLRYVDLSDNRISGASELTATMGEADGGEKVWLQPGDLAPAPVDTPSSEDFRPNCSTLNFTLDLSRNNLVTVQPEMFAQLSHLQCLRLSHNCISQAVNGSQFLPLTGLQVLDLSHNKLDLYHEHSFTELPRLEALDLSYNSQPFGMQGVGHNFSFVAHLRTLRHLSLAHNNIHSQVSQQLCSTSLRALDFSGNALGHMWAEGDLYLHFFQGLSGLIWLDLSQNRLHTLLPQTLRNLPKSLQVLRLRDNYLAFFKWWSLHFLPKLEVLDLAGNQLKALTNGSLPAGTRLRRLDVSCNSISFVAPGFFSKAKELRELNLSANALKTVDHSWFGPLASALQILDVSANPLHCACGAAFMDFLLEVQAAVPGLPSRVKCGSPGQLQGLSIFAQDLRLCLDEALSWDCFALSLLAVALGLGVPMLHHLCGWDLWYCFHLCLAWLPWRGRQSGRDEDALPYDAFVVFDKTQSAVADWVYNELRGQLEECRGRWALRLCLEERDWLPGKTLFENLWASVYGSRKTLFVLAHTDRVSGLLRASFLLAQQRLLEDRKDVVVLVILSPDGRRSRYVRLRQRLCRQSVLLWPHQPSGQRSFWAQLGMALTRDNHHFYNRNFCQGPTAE
Nature of the experiment: TLR9 inhibition reporter assay (HEK-Blue cells, secreted embryonic alkaline phosphatase reporter). In a few lines:
(§1)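 Inhibitors are tested in dose response (0.05 nM–50 μM) on HEK-Blue reporter cells expressing human TLR7, TLR8 or TLR9. After 30 min at room temperature, each line is stimulated with its own agonist (gardiquimod 7.5 μM, R848 15.9 μM or ODN2006 5 nM, final) and SEAP is measured 22 h later.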

The target in another experiment is T2, human TLR7 (Homo sapiens, UniProt Q9NYK1).
T2 construct: host or cells: HEK-Blue cells (HEK293-derived reporter line)
T2 sequence (Q9NYK1 27-1049): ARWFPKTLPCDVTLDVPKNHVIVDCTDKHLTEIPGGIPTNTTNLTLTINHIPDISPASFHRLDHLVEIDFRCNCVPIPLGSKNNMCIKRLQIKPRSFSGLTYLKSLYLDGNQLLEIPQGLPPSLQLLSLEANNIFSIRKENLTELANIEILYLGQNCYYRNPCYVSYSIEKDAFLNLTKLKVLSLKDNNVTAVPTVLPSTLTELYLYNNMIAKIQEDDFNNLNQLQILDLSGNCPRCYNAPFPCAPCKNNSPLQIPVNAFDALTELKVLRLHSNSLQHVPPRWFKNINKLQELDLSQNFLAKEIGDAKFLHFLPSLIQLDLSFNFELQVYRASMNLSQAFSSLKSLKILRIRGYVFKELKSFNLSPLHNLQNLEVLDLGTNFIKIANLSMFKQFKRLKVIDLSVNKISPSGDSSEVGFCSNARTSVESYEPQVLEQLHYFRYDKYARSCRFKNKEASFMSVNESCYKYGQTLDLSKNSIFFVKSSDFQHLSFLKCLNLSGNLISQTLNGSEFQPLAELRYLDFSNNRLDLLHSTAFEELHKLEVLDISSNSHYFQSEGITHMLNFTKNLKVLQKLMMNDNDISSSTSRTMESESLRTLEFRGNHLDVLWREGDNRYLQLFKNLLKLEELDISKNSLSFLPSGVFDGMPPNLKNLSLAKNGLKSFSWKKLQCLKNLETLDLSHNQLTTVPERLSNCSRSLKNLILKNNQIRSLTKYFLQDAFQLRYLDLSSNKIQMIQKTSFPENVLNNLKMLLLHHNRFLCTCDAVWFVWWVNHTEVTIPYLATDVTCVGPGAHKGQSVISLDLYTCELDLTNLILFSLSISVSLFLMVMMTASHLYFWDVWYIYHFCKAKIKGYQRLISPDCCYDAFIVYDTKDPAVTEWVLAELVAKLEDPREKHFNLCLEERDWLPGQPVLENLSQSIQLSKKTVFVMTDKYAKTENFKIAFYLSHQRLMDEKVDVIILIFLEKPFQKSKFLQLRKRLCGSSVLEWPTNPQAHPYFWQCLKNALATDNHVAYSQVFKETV
The experiment is described as follows: TLR7 inhibition reporter assay (HEK-Blue cells, secreted embryonic alkaline phosphatase reporter). The note with it: HEK-Blue cells overexpressing human TLR7, stimulated with gardiquimod 7.5 μM; read-out: TLR 7 IC50. In a few lines:
as §1
Background: Reporter assays use an easily measured gene product as a stand-in for the process of interest.

In another experiment the target is T3, human TLR8 (Homo sapiens, UniProt Q9NR97).
T3 construct: host or cells: HEK-Blue cells (HEK293-derived reporter line)
T3 sequence (Q9NR97 27-1041): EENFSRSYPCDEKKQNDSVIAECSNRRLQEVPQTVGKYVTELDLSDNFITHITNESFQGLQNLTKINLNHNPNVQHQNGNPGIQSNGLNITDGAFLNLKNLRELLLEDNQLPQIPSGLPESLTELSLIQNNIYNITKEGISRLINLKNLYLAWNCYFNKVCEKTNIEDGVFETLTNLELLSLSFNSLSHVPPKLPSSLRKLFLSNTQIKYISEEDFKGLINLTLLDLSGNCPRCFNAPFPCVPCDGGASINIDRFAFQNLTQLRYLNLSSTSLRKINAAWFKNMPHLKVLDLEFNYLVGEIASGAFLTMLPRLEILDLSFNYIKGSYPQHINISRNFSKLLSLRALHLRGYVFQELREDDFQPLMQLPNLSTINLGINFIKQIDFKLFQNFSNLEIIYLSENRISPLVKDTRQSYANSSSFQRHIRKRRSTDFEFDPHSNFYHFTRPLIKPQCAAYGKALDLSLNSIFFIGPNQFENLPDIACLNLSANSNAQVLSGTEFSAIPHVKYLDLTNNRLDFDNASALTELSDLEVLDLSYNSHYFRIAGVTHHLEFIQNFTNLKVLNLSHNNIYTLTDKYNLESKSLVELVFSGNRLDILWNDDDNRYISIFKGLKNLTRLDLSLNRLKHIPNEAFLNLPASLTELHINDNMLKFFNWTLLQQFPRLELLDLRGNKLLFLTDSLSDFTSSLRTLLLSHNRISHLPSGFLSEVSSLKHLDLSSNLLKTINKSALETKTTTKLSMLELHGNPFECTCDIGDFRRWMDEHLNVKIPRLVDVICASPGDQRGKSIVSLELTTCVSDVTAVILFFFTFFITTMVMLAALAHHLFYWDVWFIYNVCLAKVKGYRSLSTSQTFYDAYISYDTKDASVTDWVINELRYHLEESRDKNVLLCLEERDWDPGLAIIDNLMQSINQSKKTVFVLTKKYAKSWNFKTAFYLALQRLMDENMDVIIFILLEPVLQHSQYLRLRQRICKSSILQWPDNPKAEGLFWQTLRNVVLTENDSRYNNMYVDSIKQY
The experiment is described as follows: TLR8 inhibition reporter assay (HEK-Blue cells, secreted embryonic alkaline phosphatase reporter). The note with it: HEK-Blue cells overexpressing human TLR8, stimulated with R848 15.9 μM; read-out: TLR 8 IC50. In outline:
as §1

Setting [1] is: HEK-Blue cells overexpressing human TLR9, stimulated with ODN2006 5 nM, read-out: TLR 9 IC50.
[2] abbreviates: HEK-Blue human TLR9 reporter cells.
Setting [3] is: HEK-Blue cells overexpressing human TLR9, stimulated with ODN2006 5 nM, 22 hour incubation, reporter readout.

Like-named read-outs stand apart in the source and are kept apart here.

With `CS(=O)(=O)c1ccc(-c2nc3c(F)cc(C4CCN(C5CC6CCC(C5)N6CC5CC5)CC4)cc3n2C2CC2)cc1` (single isomer, unassigned) [Example 324, 1-cyclopropyl-6-(1-(8-(cyclopropylmethyl)-8-azabicyclo[3.2.1]octan-3-yl)piperidin-4-yl)-4-fluoro-2-(4-(methylsulfonyl)phenyl)-1H-benzo[d]imidazole], the concentration for half-maximal inhibition (IC50) at human TLR9 (setting [1]) is 42 nM; against human TLR9 (setting [2]) it was 42 nM; at human TLR7, 1500 nM; on human TLR8 it was above 50000 nM.

In the case of `CS(=O)(=O)c1ccc(-c2nc3c(F)cc(C4CCN(C5CC6CCC(C5)N6CC5CC5)CC4)cc3n2C2CC2)cc1` (single isomer, unassigned) [Example 325, 1-cyclopropyl-6-(1-(8-(cyclopropylmethyl)-8-azabicyclo[3.2.1]octan-3-yl)piperidin-4-yl)-4-fluoro-2-(4-(methylsulfonyl)phenyl)-1H-benzo[d]imidazole], the half-inhibitory concentration (IC50) on human TLR9 (setting [1]) is 15 nM; against human TLR9 (setting [2]), 15 nM; at human TLR7, 8200 nM; at human TLR8, above 50000 nM.

`CS(=O)(=O)c1ccc(-c2nc3c(F)cc(C4CCN(C5CC6CCC(C5)N6C5CCC5)CC4)cc3n2C2CC2)cc1` (single isomer, unassigned) [Example 326, 6-(1-(8-cyclobutyl-8-azabicyclo[3.2.1]octan-3-yl)piperidin-4-yl)-1-cyclopropyl-4-fluoro-2-(4-(methylsulfonyl)phenyl)-1H-benzo[d]imidazole]: the IC50 at human TLR9 (setting [1]) was 23 nM; at human TLR9 (setting [2]), 23 nM; at human TLR7 it was 1300 nM; on human TLR8, above 50000 nM.

Regarding `CS(=O)(=O)c1ccc(-c2nc3c(F)cc(C4CCN(C5CC6CCC(C5)N6C5CCC5)CC4)cc3n2C2CC2)cc1` (single isomer, unassigned) [Example 327, 6-(1-(8-cyclobutyl-8-azabicyclo[3.2.1]octan-3-yl)piperidin-4-yl)-1-cyclopropyl-4-fluoro-2-(4-(methylsulfonyl)phenyl)-1H-benzo[d]imidazole], the IC50 at human TLR9 (setting [1]) was 111 nM; at human TLR9 (setting [2]), 110 nM; on human TLR7, 2000 nM; on human TLR8 it was 18400 nM.

On to `COc1cc(-c2nc3c(C)cc(C4CCN(C5CC6CCC(C5)N6C5CCC5)CC4)cc3n2C)cn2ncnc12` (single isomer, unassigned) [Example 355, 6-(6-(1-(8-cyclobutyl-8-azabicyclo[3.2.1]octan-3-yl)piperidin-4-yl)-1,4-dimethyl-1H-benzo[d]imidazol-2-yl)-8-methoxy-[1,2,4]triazolo[1,5-a]pyridine], for which the IC50 on human TLR9 (setting [1]) was determined as 11 nM; at human TLR9 (setting [2]) it was 11 nM; on human TLR7 it was 200 nM; on human TLR8, 3100 nM.

For `COc1ccc(-c2nc3ccc(C4CCN(C5CCN(C(C)C)CC5)CC4)cc3n2C)cc1OC` [Example 1, 2-(3,4-dimethoxyphenyl)-6-(1′-isopropyl-[1,4′-bipiperidin]-4-yl)-1-methyl-1H-benzo[d]imidazole], the IC50 against human TLR9 (setting [3]) was determined as 56 nM; at human TLR7 it was 5900 nM; on human TLR8, 1100 nM.

Turning to `COc1ccc(-c2nc3ccc(C4CCN(C5CCN(C(C)C)CC5)CC4)cc3[nH]2)cc1OC` [Example 2, 2-(3,4-dimethoxyphenyl)-6-(1′-isopropyl-[1,4′-bipiperidin]-4-yl)-1H-benzo[d]imidazole], the concentration for half-maximal inhibition (IC50) is 120 nM against human TLR9 (setting [3]), 123 nM at human TLR9 (setting [1]), 16000 nM at human TLR7 and above 50000 nM at human TLR8.

For the compound `COc1ccc(-c2nc3ccc(C4CCN(C5CCN(C(C)C)CC5)CC4)cc3n2C(C)C)cc1OC` [Example 3, 2-(3,4-dimethoxyphenyl)-1-isopropyl-6-(1′-isopropyl-[1,4′-bipiperidin]-4-yl)-1H-benzo[d]imidazole], the half-inhibitory concentration (IC50) at human TLR9 (setting [3]) was 170 nM; at human TLR9 (setting [1]), 169 nM; at human TLR7, 280 nM; at human TLR8 it was above 50000 nM.

Regarding `COc1ccc(-c2nc3ccc(C4CCN(C5CCN(C(C)C)CC5)CC4)cc3n2CC(F)F)cc1OC` [Example 4, 1-(2,2-difluoroethyl)-2-(3,4-dimethoxyphenyl)-6-(1′-isopropyl-[1,4′-bipiperidin]-4-yl)-1H-benzo[d]imidazole], the IC50 on human TLR9 (setting [3]) was 250 nM; at human TLR9 (setting [1]), 253 nM; at human TLR7, 4700 nM; on human TLR8 it was above 50000 nM.

Consider `COc1ccc(-c2nc3cc(C4CCN(C5CCN(C(C)C)CC5)CC4)ccc3n2C)cc1OC` [Example 5, 2-(3,4-dimethoxyphenyl)-5-(1′-isopropyl-[1,4′-bipiperidin]-4-yl)-1-methyl-1H-benzo[d]imidazole], for which the half-maximal inhibitory concentration (IC50) against human TLR9 (setting [3]) is 250 nM; at human TLR7 it was 6800 nM; at human TLR8, 840 nM.

Usually IC50 stands for the point on the concentration scale where inhibition reaches its midpoint.
